Measured values published in patent US20240374557A1, “BETA ADRENERGIC RECEPTOR COMPOSITIONS AND METHODS OF USE THEREOF” (THE BOARD OF REGENTS OF THE UNIVERSITY OF TEXAS SYSTEM, priority 2021, published 2024).
pEC50: −log10 of the molar value.

Key:
[1] = tested on: Ad-Adrb1KO mice and littermate controls; assay: Acute CL-316243 injection: body weight, blood glucose, BAT mass and BAT histology; assay type: in vivo
Procedure: Physiological relevance of crosstalk between ADRB1 and ADRB3 in adipocytes was assessed. […] Four hours after CL-316243 injection, mice were sacrificed and BAT depots were dissected.
Treatment with CL 316, 243.
Histology. […] Samples were then dehydrated, embedded in paraffin, and cut into […] sections. Sections were stained with hematoxylin and eosin (H&E) to perform general histology. All pictures were taken at a magnification of 20× on a Zeiss Axioskop 2 microscope connected to a digital camera (AxioCam; Zeiss, Thornwood, NY). Only the sharpness, contrast, and brightness were adjusted.

[2] = tested on: Adrb1, Ppargc1a and Ucp1 mRNA expression in eWAT, iWAT and BAT; assay: Quantitative real-time PCR of adipose depots after CL-316243 injection; assay type: in vivo, mice; settings: CL-316243 0.1 mg/kg
Procedure: Quantitative real-time PCR. […] Total mRNA was isolated from eWAT, iWAT and interscapular BAT using the Aurum™ Total RNA Fatty and Fibrous Tissue Kit (Bio-Rad, 732-6830). RNA concentration was estimated from absorbance at 260 nm. cDNA synthesis was performed using the iScript Advanced cDNA Synthesis Kit (Bio-Rad, 172-5038). mRNA extraction and cDNA synthesis were performed following the manufacturer's instructions. cDNA was diluted in DNase-free water before quantification by real-time PCR. Relative quantification of gene expression was performed on diluted cDNA in duplicate samples using a CFX384 Touch™ real-time PCR (Bio-Rad). Fold differences in targeted mRNA expression were calculated using the 2-delta cycle threshold method and data were normalized to beta-microglobulin (B2m) expression. TaqMan gene expression assays for Adrb1 (Mm00431701_s1), B2m (Mm00437762_m1), Ppargc1a (Mm01208835_m1), and Ucp1 (Mm01244861_m1) were purchased from ThermoFisher Scientific.

[3] = tested on: ADRB3; settings: cited from earlier work
[4] = tested on: Ad-Adrb1KO mice and littermate controls; assay: Blood glucose over 60 minutes after CL-316243 dose range; settings: for reducing glycemia: 0.001 mg/kg
Procedure: Tail vein blood glucose levels were then monitored using a glucometer (Bayer's Contour Blood Glucose Monitoring System.
(§3) Treatment with CL 316, 243. Mice were fasted for 2 hours (0800-1000) and then given an injection of the ADRB3 agonist CL 316,243 (“CL”, 0.001-1 mg/kg) or vehicle (saline). In some cohorts, human recombinant insulin (Eli Lilly) or D-glucose (Sigma 49163-100ML) was co-administrated with CL.

[5] = tested on: Ad-Adrb1KO mice and littermate controls; assay: Co-administration of CL-316243 with insulin or glucose: blood glucose, plasma insulin, NEFA; settings: for increase in plasma insulin levels: CL-316243 0.1 mg/kg co-administered with glucose, 30 minutes after vs before
Procedure: as §3
Evaluation of insulin and NEFA levels. Blood from tail vein was collected before and 30 minutes after co-administration of CL with D-glucose into EDTA tubes. Plasma was isolated by centrifugation (4000 g×10 minutes at 4° C.). Plasma insulin (Mouse Ultrasensitive Insulin ELISA, ALPCO, 80-INSMSU-E01) and NEFA (FUJIFILM Wako Diagnostics-NEFA Reagent, 999-34691, 995-34791, 991-34891, 993-35191) levels were measured following manufacturer recommendations.

[6] = tested on: C57BL/6N mice on 42% high fat diet; assay: 4-week treatment of high fat diet fed mice: body weight, body composition, cholesterol, oral glucose tolerance; assay type: in vivo; settings: compared to placebo
Procedure: (§1) In brief, three cohorts of male C57BL/6N mice, including a total of 100 mice, were used in these studies. Five-week-old mice were placed on a 42% high fat diet for 4 weeks. The treatments were provided for 4 weeks, during which time mice were maintained on the 42% high fat diet.
(§2) Mirabegron, an ADRB3 agonist, was administered at an 8 mg/kg daily dose. Atenolol is an ADRB1 antagonist and was administered to the mice at, on average, 60 mg/kg per day. Mirabegron or its buffer (5% PEG 400; placebo) were administered to the mice daily by gavage for 4 weeks. Mice were also given ad libitum access to a water bottle or a water bottle containing atenolol. […] Oral glucose tolerance testing was performed on overnight fasted mice administered 5 μL 60% glucose solution per g BW using a gavage tube; blood glucose levels were determined with a glucometer using blood from tail nicks at times 0, 15, 30, 60 and 120 minutes. Blood pressure measurements were obtained using a CODA-HT8 High Throughput Noninvasive Blood Pressure system with 8 activated channels for use with mice and rats from Kent Scientific. Methods and statistical analysis were performed as described above.

[7] = tested on: C57BL/6N mice on 42% high fat diet; settings: 4 weeks, compared to placebo; mirabegron 8 mg/kg daily, atenolol 60 mg/kg per day
Procedure: as §1, §2

[8] = CL-316243 0.1 mg/kg, Ad-Adrb1KO mice
[9] = every adipose depot, independent of the genotype
[10] = 4 weeks, mirabegron 8 mg/kg daily gavage, atenolol 60 mg/kg per day in water

C[C@H](Cc1ccc2c(c1)OC(C(=O)[O-])(C(=O)[O-])O2)NC[C@H](O)c1cccc(Cl)c1.[Na+].[Na+] [CL-316243, 5-[(2R)-2-[[(2R)-2-(3-Chlorophenyl)-2-hydroxyethyl]amino]propyl]-1,3-benzodioxole-2,2-dicarboxylic acid disodium salt]
BAT mass [1, 8]: comparable to CL-316243-treated littermates | CL-316243-induced mobilization of intracellular triglycerides in BAT [1, 8]: markedly improved | lipid droplets in H&E-stained BAT ([1]; CL-316243 0.1 mg/kg, mice lacking Adrb1 in adipocytes): near-complete depletion | weight of the mice ([1]; acute CL-316243 0.1 mg/kg, Ad-Adrb1KO mice and littermate controls): did not significantly change | efficiency to reduce blood glucose levels (treatment x genotype) ([1]; acute CL-316243 0.1 mg/kg, Ad-Adrb1KO vs littermate controls): significant interaction | Adrb1 mRNA expression (significantly reduced or not) ([2]; BAT, littermate controls): not | Adrb1 mRNA expression ([2]; eWAT, littermate controls): significantly reduced | Ppargc1a mRNA expression [2, 9]: increase | Ucp1 mRNA expression [2, 9]: increase | Adrb1 mRNA expression (significantly reduced or not) ([2]; iWAT, littermate controls): not in iWAT | selectivity for ADRB3 over ADRB1 and ADRB2 [3]: over 10000 fold | pEC50 ([3]; read-out: EC50 (ADRB3 agonist)): 8.52 | reducing glycemia ([4]; Ad-Adrb1KO mice): still effective | reducing glycemia ([4]; littermate controls): not littermate controls | blood glucose ([4]; both genotypes, even at low dose of 0.01 mg/kg, 60-minute period): glucose lowering effect | increase in plasma insulin levels ([5]; Ad-Adrb1KO mice): 43 fold | increase in plasma insulin levels ([5]; littermate controls): 12 fold | glucose clearance ([5]; CL-316243 0.1 mg/kg co-administrated with glucose, Ad-Adrb1KO mice): drastically improved | insulin sensitivity ([5]; CL-316243 0.1 mg/kg in combination with insulin, Ad-Adrb1KO mice compared to control littermates): slight but significant improvement | plasma NEFA levels between Ad-Adrb1KO mice and littermate controls ([5]; CL-316243 co-administrated with glucose): no difference

Nc1nc(CC(=O)Nc2ccc(CCNC[C@H](O)c3ccccc3)cc2)cs1 [mirabegron]
LDL cholesterol [6, 10]: significant decreases | epididymal fat mass [6, 10]: significant decreases | total body weight [6, 10]: significant decreases | total cholesterol [6, 10]: significant decreases | total fat mass [6, 10]: significant decreases | glucose tolerance (blood glucose area under the curve) ([6]; oral glucose tolerance test after 4 weeks): significant improvements | diastolic blood pressure (DBP) [7]: elevated | mean arterial blood pressure (MBP) [7]: elevated | systolic blood pressure (SBP) [7]: elevated
